Data published in PMC10608985, “Retention Behavior of Anticancer Thiosemicarbazides in Biomimetic Chromatographic Systems and In Silico Calculations” (Molecules, 2023).

Assays:
[1] = HPLC lipophilicity on IAM (immobilized artificial membrane, phosphatidylcholine) stationary phase; type: physicochemical; details: pH 7.4; for Log k IAM: Table S2; for log kw IAM: intercept, linear extrapolation to water; for log kw IAM / -S IAM: ACN/20 mM phosphate buffer; for -S IAM: slope of Soczewiński–Wachtmeister equation
Method in brief: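 Rexchrom IAM.PC.DD2 column with ACN/20 mM phosphate buffer pH 7.4 (0.15 M KCl), ACN fraction 0.05–0.4 v/v at 0.05 steps, 1 mL/min, UV 280 nm, room temperature; t0 from citric acid. log kw and slope S extrapolated via Soczewiński–Wachtmeister equation.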

[2] = target: T1, human serum albumin (HSA) (Homo sapiens, UniProt P02768); test: HPLC on immobilized HSA column, affinity and % plasma–protein binding; type: in vitro ADME; details: for log K HSA: binding equilibrium constant from calibration curve (Equation 8) of log k HSA; for fraction unbound: human, pH 7.4, % plasma–protein binding converted from log K HSA (Equation 10), read-out: %PPB HSA (converted); for log k HSA: retention on HSA column, 50 mM ammonium acetate pH 7.4 / propan-2-ol 85/15 (v/v)
T1 construct: purchased Chiralpac
T1 sequence (P02768 25-609): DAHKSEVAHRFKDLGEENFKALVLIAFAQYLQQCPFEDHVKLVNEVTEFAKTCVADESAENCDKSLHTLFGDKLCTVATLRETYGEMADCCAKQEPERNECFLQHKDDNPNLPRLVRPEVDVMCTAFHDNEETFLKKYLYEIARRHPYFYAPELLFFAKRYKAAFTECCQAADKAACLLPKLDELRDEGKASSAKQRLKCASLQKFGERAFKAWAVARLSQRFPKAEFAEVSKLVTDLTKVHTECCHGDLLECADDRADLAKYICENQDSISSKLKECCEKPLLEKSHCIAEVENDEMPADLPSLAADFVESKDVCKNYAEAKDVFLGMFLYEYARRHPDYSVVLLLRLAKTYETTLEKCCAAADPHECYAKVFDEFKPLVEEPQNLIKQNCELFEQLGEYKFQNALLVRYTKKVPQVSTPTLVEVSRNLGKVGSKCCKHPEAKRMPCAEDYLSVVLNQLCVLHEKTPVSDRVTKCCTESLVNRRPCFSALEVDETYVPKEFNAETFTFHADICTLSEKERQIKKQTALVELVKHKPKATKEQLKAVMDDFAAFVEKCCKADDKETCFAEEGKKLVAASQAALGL
Method in brief: (§1)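 Retention (log k) on immobilized-protein HPLC columns, 50 mM ammonium acetate pH 7.4 with propan-2-ol (85/15 for AGP), UV 280 nm, room temperature. log K read from drug calibration curves, then converted to %PPB.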

[3] = parameters: method as in Kozyra et al. [31]; details: MeOH/20 mM acetate buffer, pH 7.4, ref Kozyra et al. [31], cited from earlier work; for log kw C-18: intercept of Soczewiński–Wachtmeister equation (water as mobile phase); for -S C-18: slope of Soczewiński–Wachtmeister equation
[4] = HPLC lipophilicity on cholesterol (Chol) stationary phase; type: physicochemical; details: pH 7.4; for Log k Chol: Table S3; for log kw Chol: intercept, linear extrapolation to water; for log kw Chol / -S Chol: MeOH/20 mM acetate buffer; for -S Chol: slope of Soczewiński–Wachtmeister equation
Method in brief: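 Cholesterol-bonded column run isocratically with MeOH/20 mM acetate buffer at pH 7.4, MeOH fraction 0.3–0.8 (v/v), 0.35 mL/min, room temperature, UV 280 nm. t0 from citric acid; log kw (intercept) and slope S from Soczewiński–Wachtmeister regression of log k against modifier content.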

[5] = tested on: α1-acid glycoprotein (AGP); test: HPLC on immobilized AGP column, affinity and % plasma–protein binding; type: in vitro ADME, human; details: for log K AGP: binding equilibrium constant from calibration curve (Equation 9) of log k AGP; for fraction unbound: human, pH 7.4, % plasma–protein binding converted from log K AGP (Equation 10), read-out: %PPB AGP (converted); for log k AGP: retention on AGP column, 50 mM ammonium acetate pH 7.4 / propan-2-ol 85/15 (v/v)
Method in brief: as §1

Row | Compound | Log k IAM ([1]; ACN 0.15 v/v in mobile phase) | Log k IAM ([1]; ACN 0.20 v/v in mobile phase) | Log k IAM ([1]; ACN 0.25 v/v in mobile phase) | Log k IAM ([1]; ACN 0.30 v/v in mobile phase) | Log k IAM ([1]; ACN 0.35 v/v in mobile phase) | log kw IAM [1] | -S IAM [1] | log K HSA [2] | log k HSA [2] | log kw C-18 [3] | -S C-18 [3] | Log k Chol ([4]; MeOH 0.35 v/v in mobile phase) | Log k Chol ([4]; MeOH 0.40 v/v in mobile phase) | Log k Chol ([4]; MeOH 0.50 v/v in mobile phase) | Log k Chol ([4]; MeOH 0.60 v/v in mobile phase) | log kw Chol [4] | -S Chol [4] | log K AGP [5] | fraction unbound [5] | log k AGP [5] | also measured
1 | CSc1ccc(NC(=S)NNC(=O)COc2ccccc2)cc1 [Compound 17] | 0.821 | 0.513 | 0.282 | -0.101 | -0.280 | 1.6998 | 5.7908 | 1.6830 | 1.3603 | 2.6753 | 4.6859 | 1.434 | 1.108 | 0.510 | 0.379 | 3.1664 | 5.0386 | 0.6672 | 0.169 | 0.5548 | Log k IAM ([1]; ACN 0.10 v/v in mobile phase): 1.147; fraction unbound [2]: 0.011; Log k Chol ([4]; MeOH 0.45 v/v in mobile phase): 0.878; Log k Chol ([4]; MeOH 0.70 v/v in mobile phase): -0.316; Log k Chol ([4]; MeOH 0.80 v/v in mobile phase): -0.975
2 | O=C(COc1ccccc1)NNC(=S)Nc1ccc(I)cc1 [Compound 12] | 1.352 | 0.951 | 0.655 | 0.141 | -0.016 | 2.3341 | 6.8364 | 2.1778 | 1.8304 | 2.9681 | 4.8352 |  | 1.303 | 0.685 | 0.404 | 3.3300 | 5.0829 | 0.8378 | 0.118 | 0.7465 | Log k IAM ([1]; ACN 0.40 v/v in mobile phase): -0.358; Log k Chol ([4]; MeOH 0.45 v/v in mobile phase): 1.049; Log k Chol ([4]; MeOH 0.70 v/v in mobile phase): -0.214; Log k Chol ([4]; MeOH 0.80 v/v in mobile phase): -0.783
3 | O=C(COc1ccccc1)NNC(=S)Nc1ccccc1I [Compound 4] | 0.893 | 0.642 | 0.451 | -0.029 | -0.138 | 1.7099 | 5.3942 | 1.5037 | 1.1899 | 2.4824 | 4.4182 | 0.974 | 0.747 | 0.244 | -0.037 | 2.3754 | 4.1215 | 0.6707 | 0.168 | 0.5588 | Log k IAM ([1]; ACN 0.10 v/v in mobile phase): 1.158; fraction unbound [2]: 0.021; Log k Chol ([4]; MeOH 0.30 v/v in mobile phase): 1.105; Log k Chol ([4]; MeOH 0.45 v/v in mobile phase): 0.519; Log k Chol ([4]; MeOH 0.80 v/v in mobile phase): -0.938
4 | O=C(COc1ccccc1)NNC(=S)Nc1ccc([N+](=O)[O-])cc1 [Compound 16] | 0.590 | 0.253 | 0.016 |  | -0.533 | 1.5455 | 6.0875 | 1.7456 | 1.4198 | 2.7200 | 5.1865 | 1.082 | 0.843 | 0.093 | -0.189 | 2.8538 | 5.2122 | 0.3508 | 0.302 | 0.1994 | Log k IAM ([1]; ACN 0.05 v/v in mobile phase): 1.287; Log k IAM ([1]; ACN 0.10 v/v in mobile phase): 0.964; fraction unbound [2]: 0.008; Log k Chol ([4]; MeOH 0.30 v/v in mobile phase): 1.264; Log k Chol ([4]; MeOH 0.45 v/v in mobile phase): 0.478
5 | O=C(COc1ccccc1)NNC(=S)Nc1ccccc1F [Compound 2] | 0.455 | 0.234 | -0.010 | -0.358 | -0.461 | 1.1961 | 4.8953 | 1.2775 | 0.9750 | 2.0774 | 4.3603 | 0.656 | 0.441 | -0.037 | -0.314 | 1.9241 | 3.7822 | 0.3986 | 0.278 | 0.2531 | Log k IAM ([1]; ACN 0.05 v/v in mobile phase): 0.968; Log k IAM ([1]; ACN 0.10 v/v in mobile phase): 0.692; fraction unbound [2]: 0.041; Log k Chol ([4]; MeOH 0.30 v/v in mobile phase): 0.744; Log k Chol ([4]; MeOH 0.80 v/v in mobile phase): -1.104
6 | O=C(COc1ccccc1)NNC(=S)Nc1ccc(Br)cc1 [Compound 11] | 1.141 | 0.792 | 0.453 | 0.004 | -0.111 | 2.1020 | 6.5856 | 2.0248 | 1.685 | 2.734 | 4.6183 | 1.437 | 1.158 | 0.571 | 0.276 | 3.1674 | 5.0251 | 0.6344 | 0.18 | 0.518 | Log k Chol ([4]; MeOH 0.45 v/v in mobile phase): 0.871; Log k Chol ([4]; MeOH 0.80 v/v in mobile phase): -0.886
